Experimental data taken from ChEMBL document CHEMBL1146159, “Design, synthesis, and preliminary biological evaluation of novel ethyl 1-(2'-hydroxy-3'-aroxypropyl)-3-aryl-1H-pyrazole-5-carboxylate” (Bioorg Med Chem Lett, 2006).
Active and inactive are the calls of the source. No cut-off for these calls is given here.

Key:
Type in all cases: functional, cell-based
A549 [1] = experiment: Growth inhibition in A549 cells at 100 uM by MTT assay; details: Homo sapiens
A549 [2] = experiment: Growth inhibition in A549 cells at 25 uM after 24 hrs by MTT assay; details: Homo sapiens
A549 [3] = experiment: Growth inhibition in A549 cells at 25 uM after 48 hrs by MTT assay; details: Homo sapiens
A549 [4] = experiment: Growth inhibition in A549 cells after 48 hrs by MTT assay; details: Homo sapiens, A549, 48 h
A549 [5] = experiment: Growth inhibition in A549 cells at 50 uM by MTT assay; details: Homo sapiens
A549 [6] = experiment: Effect on cell morphology in A549 cells assessed as induction of cellular vacuolation; details: Homo sapiens
A549 [7] = experiment: Growth inhibition in A549 cells at 12.5 uM after 48 hrs by MTT assay; details: Homo sapiens
A549 [8] = experiment: Effect on cell morphology in A549 cells assessed as induction of differentiation at 50 uM; details: Homo sapiens

SMILES | Activity (A549 [1]) | Activity (A549 [2]) | Activity (A549 [3]) | IC50 (A549 [4]) | Activity (A549 [5]) | Activity (A549 [6]) | Activity (A549 [7]) | Activity (A549 [8])
CCOC(=O)c1cc(-c2ccccc2)nn1CC(O)COc1ccccc1OC (stereo unspecified) | Active | Active | inactive | 58 µM | Active |  |  | 
CCOC(=O)c1cc(-c2ccc(Cl)cc2)nn1CC(O)COc1ccc(Cl)cc1 (stereo unspecified) | Active |  | Active | 33 µM | Active | Active |  | 
CCOC(=O)c1cc(-c2ccc(OC)cc2)nn1CC(O)COc1ccccc1OC (stereo unspecified) | Active |  |  | 68 µM | Active |  |  | 
CCOC(=O)c1cc(-c2ccc(Cl)cc2)nn1CC(O)COc1ccccc1[N+](=O)[O-] (stereo unspecified) | Active | Active | inactive | 26 µM | Active |  | Active | 
CCOC(=O)c1cc(-c2ccccc2)nn1CC(O)COc1ccccc1 (stereo unspecified) | Active |  | Active | 65 µM | Active |  |  | 
CCOC(=O)c1cc(-c2ccc(Cl)cc2)nn1CC(O)COc1ccccc1 (stereo unspecified) | Active | Active | inactive | 27 µM | Active |  | Active | Active
CCOC(=O)c1cc(-c2ccccc2)nn1CC(O)COc1ccc([N+](=O)[O-])cc1 (stereo unspecified) | Active | Active | inactive | 48 µM | Active |  |  | 
CCOC(=O)c1cc(-c2ccc(OC)cc2)nn1CC(O)COc1ccc(Cl)cc1 (stereo unspecified) | Active |  |  | 38 µM | Active |  |  | 
CCOC(=O)c1cc(-c2ccc(OC)cc2)nn1CC(O)COc1ccccc1[N+](=O)[O-] (stereo unspecified) | Active |  |  | 45 µM | Active |  |  | 
CCOC(=O)c1cc(-c2ccccc2)nn1CC(O)COc1ccc(Cl)cc1 (stereo unspecified) | Active |  |  | 59 µM | Active |  |  | 
CCOC(=O)c1cc(-c2ccc(Cl)cc2)nn1CC(O)COc1ccc([N+](=O)[O-])cc1 (stereo unspecified) | Active | Active | inactive | 45 µM | Active |  | Active | 
CCOC(=O)c1cc(-c2ccccc2)nn1CC(O)COc1ccccc1[N+](=O)[O-] (stereo unspecified) | Active | Active | inactive | 30 µM | Active |  |  | 
CCOC(=O)c1cc(-c2ccc(OC)cc2)nn1CC(O)COc1ccccc1 (stereo unspecified) | Active |  | Active | 33 µM | Active |  |  | 
CCOC(=O)c1cc(-c2ccc(Cl)cc2)nn1CC(O)COc1ccccc1OC (stereo unspecified) | Active |  | Active | 32 µM | Active |  |  | 
CCOC(=O)c1cc(-c2ccc(OC)cc2)nn1CC(O)COc1ccc([N+](=O)[O-])cc1 (stereo unspecified) | Active |  |  | 44 µM | Active |  |  | 
